Results taken from patent publication US10806694B2, “Nanoparticles for photodynamic therapy, X-ray induced photodynamic therapy, radiotherapy, radiodynamic therapy, chemotherapy, immunotherapy, and any combination thereof” (The University of Chicago, priority 2014, dated 2020).

Key:
[1] = Fluorescence lifetime by Time-Correlated Single Photon Counting; fluorescence intensity; assay type: physicochemical
Method: The fluorescence spectra of H2DBP ligand and DBP-UiO NMOF were taken on a spectrofluorophotometer (RF-5301PC, Shimadzu Corporation, Kyoto, Japan).
Time-domain lifetimes were measured on a ChronosBH lifetime fluorimeter (ISS, Inc., Champaign, Ill., United States of America) using Time-Correlated Single Photon Counting (TCSPC) methods. The fluorimeter contained Becker-Hickl SPC-130 detection electronics and an HPM-100-40 Hybrid PMT detector. Tunable picosecond pulsed excitation was provided by a Fianium SC400-2 supercontiuum laser source with integrated pulse picker and AOTF. Emission wavelengths were selected with bandpass filters (Semrock and Chroma). The Instrument Response Function (IRF) was measured to be approximately 120 ps FWHM in a 1% scattering solution of Ludox LS colloidal silica. Lifetimes were fit via a forward convolution method in the Vinci control and analysis software.
Fluorescence spectra of suspensions of Hf-MOF (0.04 mM of L ligand) in water, DMF, and THF were taken with an excitation wavelength of 368.8 nm. […] Fluorescence lifetimes of Hf-MOF, Zr-MOF, and H2L suspensions in water were also examined.

HT29 cells = settings: 8.5 μM dose, 100 J/cm^2 light dose; cited from earlier work

| Compound | excited state lifetime ([1]; DMF solution or suspension) [ns] | weighted fluorescence lifetime ([1]; suspensions in water) [ns] | PDT efficacy (HT29 cells) |
| --- | --- | --- | --- |
| O=C(O)c1ccc(-c2c3ccccc3c(-c3ccc(C(=O)O)cc3)c3ccccc23)cc1 [H2L, 9,10-anthacenyl bis(benzoic acid)] | 5.34 | 2.0 | – |
| PHOTOFRIN® | – | – | modest PDT efficacy |
